Laboratory results from patent publication US11242344B2, “(4-hydroxypyrrolidin-2-yl)-heterocyclic compounds and methods of use thereof” (Genentech, Inc., priority 2017, dated 2022).

Legend:
VHL Elongin B/C complex = VHL Elongin B/C complex (Homo sapiens (Human), UniProt P40337); assay: Fluorescence Polarization (FP) VHL Binding Assay; conditions: VHL binding, FP assay; geometric mean where more than one measurement
Procedure: The binding of test compounds to the VHL Elongin B/C complex was measured using a fluorescence polarization tracer competition assay. The VHL/Elongin B/C protein complex used in the assay was generated as follows. The coding region for amino acids E55-D213 of human VHL with N-terminal His6 tag with a TEV-protease cleavage site was co-expressed with Elongin B (residues M1-Q118) and Elongin C (Residues M17-C112) in E. coli. […] The purified VHL/Elongin B/C complex was dialyzed into formulation buffer: 20 mM Bis-Tris pH7.0, 150 mM NaCl, 1 mM DTT. A VHL fluorescence polarization probe (prepared in Example 91), consisted of a VHL ligand coupled to carboxytetramethylrhodamine (TAMRA); […] Compounds were prepared as a serial dilution in DMSO at a concentration 25-fold higher than the final desired concentration and acoustically dispensed (400 nl) into a ProxiPlate-384 Plus F, Black 384-shallow well Microplate (Part Number 6008260). DMSO was dispensed into wells designated for “VHL control” (without compound) wells. The “Assay Buffer” consisted of 50 mM Tris pH 8.0, 120 mM NaCl, 0.005% Nonidet P-40, and 1% DMSO (v/v). Assay Buffer containing […] VHL Elongin B/C complex was prepared and 5 μl dispensed using a BioRapTR (Beckman Coulter) into each well of the assay plate. Assay Buffer was also dispensed into “no VHL control” wells using the same method. A “pre-assay” fluorescence measurement was made using an Infinite® M1000 (Tecan) plate reader (Excitation 530 nm, Emission 574 nm, Bandwidth 10 nm). Assay Buffer containing 3.34 nM of the VHL FP probe was prepared in Assay Buffer and 5 μl dispensed into each well of the assay plate using a BioRapTR (Beckman Coulter). The final VHL/Elongin B/C protein concentration is 2.64 nM and the final probe concentration is 1.67 nM. Assay plates were briefly centrifuged and incubated for 1 hour at room temperature. “Post-assay” fluorescence polarization measurements were made as described for the “pre-assay” fluorescence measurement. Fluorescence polarization was calculated for each sample; taking into account the “pre-assay” fluorescence measurements and subtracting the fluorescence signal of the compound/VHL only (“pre-assay”) measurements from the “post-assay” fluorescence polarization measurements, for each plane of polarization. The data were analyzed using Genedata Screener software and normalized to the “no VHL control” and “VHL control” (without compound). IC50 values were calculated using a four parameter curve fit (Robust method).

[1] = target: VHL co-expressed with Elongins B and C (Homo sapiens (Human), UniProt P40337); assay: Surface Plasmon Resonance Assay; format: binding; conditions: SPR measured VHL affinity; geometric mean where more than one measurement
Sequence of VHL co-expressed with Elongins B and C (P40337 whole entry, looked up): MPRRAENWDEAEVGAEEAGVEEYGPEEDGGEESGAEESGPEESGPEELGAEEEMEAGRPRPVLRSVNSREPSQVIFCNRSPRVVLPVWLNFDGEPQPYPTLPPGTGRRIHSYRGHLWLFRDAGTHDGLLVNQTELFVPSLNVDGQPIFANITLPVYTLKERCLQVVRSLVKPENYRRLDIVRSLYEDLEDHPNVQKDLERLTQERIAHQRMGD
Sequence of VHL co-expressed with Elongins B and C (Q15370 whole entry partner, looked up): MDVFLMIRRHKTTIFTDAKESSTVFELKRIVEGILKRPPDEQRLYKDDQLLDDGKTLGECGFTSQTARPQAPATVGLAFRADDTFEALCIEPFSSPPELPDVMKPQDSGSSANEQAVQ
Sequence of VHL co-expressed with Elongins B and C (Q15369 whole entry partner, looked up): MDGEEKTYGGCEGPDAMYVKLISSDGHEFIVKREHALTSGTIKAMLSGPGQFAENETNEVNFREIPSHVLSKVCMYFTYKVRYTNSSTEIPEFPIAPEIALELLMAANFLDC
Procedure: Using a Biacore T200, […] tagged VHL co-expressed with Elongins B and C were immobilized to a Biacore SA chip in running buffer without DMSO. Compounds were tested individually at varying concentrations in running buffer (50 mM HEPES pH 7.2, 150 mM NaCl, 0.5 mM TCEP, 0.001% Tween 20, 0.2% PEG3350, 2% DMSO) at 20° C. Sensorgrams were run in order from low to high concentration using a flow rate of 80 μL/min. Association and disassociation times were varied depending on the estimated potency of the compound tested. […] Galdeano et al, J. Med. Chem. 2014, 57, 8657-8663, herein incorporated by reference) which retained greater than 75% of the activity over the course of the run. Analysis of the binding curves and determination of the kinetic parameters were done using evaluation software (Version 2.0, Biacore).

Sequence of VHL Elongin B/C complex (P40337 whole entry, looked up, the tested form may be a part): as the sequence (P40337 whole entry, looked up) above
Sequence of VHL Elongin B/C complex (Q15370 whole entry partner, looked up, the tested form may be a part): as the sequence (Q15370 whole entry partner, looked up) above
Sequence of VHL Elongin B/C complex (Q15369 whole entry partner, looked up, the tested form may be a part): as the sequence (Q15369 whole entry partner, looked up) above

Compound	IC50 (VHL Elongin B/C complex) [µM]	Kd [1] [µM]
Cc1cc(C(C(=O)N2C[C@H](O)CC2C2=NC(=O)C(C)(c3ccc(-c4scnc4C)cc3)N2)C(C)C)on1 (single isomer, unassigned) [Example 104.3]	230	44.6
Cc1cc(C(C(=O)N2C[C@H](O)CC2C2=NC(=O)C(C)(c3ccc(-c4cccc(=O)n4C)cc3)N2)C(C)C)on1 (single isomer, unassigned) [Example 108.4]	> 400	> 0.3
CC(=O)N[C@H](C(=O)N1C[C@H](O)CC1C1=NC(=O)C(C)(c2ccc(Br)cc2)N1)C(C)(C)C (single isomer, unassigned) [Example 101.2]	> 200	41.6
Cc1cc(C(C(=O)N2C[C@H](O)CC2C2=NC(=O)C(C)(c3ccc(-c4cccnc4C)cc3)N2)C(C)C)on1 (single isomer, unassigned) [Example 106.2]	> 400	> 150
CC(=O)N[C@H](C(=O)N1C[C@H](O)CC1C1=NC(=O)C(C)(c2ccc(-c3scnc3C)cc2)N1)C(C)(C)C (single isomer, unassigned) [Example 102.1]	6.17	1.96
Cc1cc(C(C(=O)N2C[C@H](O)CC2C2=NC(=O)C(C)(c3ccc(-c4cccc(=O)n4C)cc3)N2)C(C)C)on1 (single isomer, unassigned) [Example 108.1]	57.5	13.9
CC(=O)N[C@H](C(=O)N1C[C@H](O)CC1C1=NC(=O)C(C)(c2ccc(Br)cc2)N1)C(C)(C)C (single isomer, unassigned) [Example 101.4]	108	26.7
Cc1cc(C(C(=O)N2C[C@H](O)CC2C2=NC(=O)C(C)(c3ccc(-c4scnc4C)cc3)N2)C(C)C)on1 (single isomer, unassigned) [Example 104.1]	203	35.9
Cc1cc(C(C(=O)N2C[C@H](O)CC2C2=NC(=O)C(C)(c3ccc(-c4cccc(=O)n4C)cc3)N2)C(C)C)on1 (single isomer, unassigned) [Example 108.3]	> 400	> 0.3
Cc1cc(C(C(=O)N2C[C@H](O)CC2C2=NC(=O)C(C)(c3ccc(-c4cccnc4)cc3)N2)C(C)C)on1 (single isomer, unassigned) [Example 105.1]	375	241
Cc1cc(C(C(=O)N2C[C@H](O)CC2C2=NC(=O)C(C)(c3ccc(-c4scnc4C)cc3)N2)C(C)C)on1 (single isomer, unassigned) [Example 104.2]	> 400	> 150
Cc1cc(C(C(=O)N2C[C@H](O)CC2C2=NC(=O)C(C)(c3ccc(-c4cccnc4C)cc3)N2)C(C)C)on1 (single isomer, unassigned) [Example 106.1]	> 400	> 150
Cc1cc(C(C(=O)N2C[C@H](O)CC2C2=NC(=O)C(C)(c3ccc(-c4cccnc4)cc3)N2)C(C)C)on1 (single isomer, unassigned) [Example 105.3]	> 400	> 150
Cc1cc(C(C(=O)N2C[C@H](O)CC2C2=NC(=O)C(C)(c3ccc(Br)cc3)N2)C(C)C)on1 (single isomer, unassigned) [Example 103.1]	> 400	> 150
Cc1cc(C(C(=O)N2C[C@H](O)CC2C2=NC(=O)C(C)(c3ccc(-c4cccnc4C)cc3)N2)C(C)C)on1 (single isomer, unassigned) [Example 106.4]	2.96	0.895
Cc1cc([C@@H](C(=O)N2C[C@H](O)C[C@H]2C2=NOC(c3ccc(Br)cc3)(C(F)(F)F)N2)C(C)C)on1 (single isomer, unassigned) [Example 133.2]	≥ 400	≥ 150
Cc1cc(C(C(=O)N2C[C@H](O)CC2C2=NC(=O)C(C)(c3ccc(-c4scnc4C)cc3)N2)C(C)C)on1 (single isomer, unassigned) [Example 104.4]	0.422	0.171
Cc1cc(C(C(=O)N2C[C@H](O)CC2C2=NC(=O)C(C)(c3ccc(Br)cc3)N2)C(C)C)on1 (single isomer, unassigned) [Example 103.4]	6.73	1.09
CC(=O)N[C@H](C(=O)N1C[C@H](O)CC1C1=NC(=O)C(C)(c2ccc(Br)cc2)N1)C(C)(C)C (single isomer, unassigned) [Example 101.3]	> 200	332
Cc1cc(C(C(=O)N2C[C@H](O)CC2C2=NC(=O)C(C)(c3ccc(-c4cccnc4)cc3)N2)C(C)C)on1 (single isomer, unassigned) [Example 105.4]	5.39	1.58
Cc1cc(C(C(=O)N2C[C@H](O)CC2C2=NC(=O)C(C)(c3ccc(Br)cc3)N2)C(C)C)on1 (single isomer, unassigned) [Example 103.3]	292	> 150
CC(=O)N[C@H](C(=O)N1C[C@H](O)CC1C1=NC(=O)C(C)(c2ccc(-c3scnc3C)cc2)N1)C(C)(C)C (single isomer, unassigned) [Example 102.2]	93.1	43.8
CC(=O)N[C@H](C(=O)N1C[C@H](O)CC1C1=NC(=O)C(C)(c2ccc(-c3scnc3C)cc2)N1)C(C)(C)C (single isomer, unassigned) [Example 102.3]	43.3	10.7
Cc1cc(C(C(=O)N2C[C@H](O)CC2C2=NC(=O)C(C)(C)N2)C(C)C)on1 (single isomer, unassigned) [Example 107.3]	> 50	> 150
Cc1cc(C(C(=O)N2C[C@H](O)CC2C2=NC(=O)C(C)(c3ccc(-c4cccnc4C)cc3)N2)C(C)C)on1 (single isomer, unassigned) [Example 106.3]	> 400	> 150
